Laboratory results taken from patent US6639089B2, “Anticancer agents, perfumes or foods and drinks” (Soda Aromatic Co., Ltd., priority 2001, dated 2003).
Like-named read-outs stand apart in the source and are kept apart here.

What was measured:
[1] = test system: melanoma cell line B16BL6; experiment: Cancer cell mobility test (cancer invasion inhibitory action), Boyden double chamber with Matrigel/fibronectin; format: cell-based; settings: for Tumor Invasion (cell/mm^2) 5 μM / Tumor Invasion (cell/mm^2) 20 μM: administered to cells 18 hours in advance, B16BL6, counted after 3.5 hours; for activity at 20 µM: Mus musculus
Experimental: (§1) A Boyden double chamber was used, in which a porous film with 8 μm pores was placed, the upper surface of the porous film being coated with Matrigel as a reconstructed membrane, the lower surface of the porous film being coated with fibronectin as an extracellular matrix. In the upper compartment of the chamber, 200,000 cells of melanoma cell line B16BL6, a type of skin cancer, were inoculated, and after 3.5 hours, Diff Quick staining was performed and the number of invasive cancer cells invading the lower compartment was counted using a CCD camera/multibioscanner. The compounds of the present invention were administered to cancer cells for 18 hours in advance at amounts of 5 μM and 20 μM.

[2] = test system: B-16 melanoma cell line BL; experiment: Cancer metastasis inhibitory action test (in vivo), lung metastasis after caudal vein injection of melanoma cells; settings: lungs on day 14, mean of 6 mice
Experimental: Cancer cells of B-16 melanoma cell line BL were incubated in a 5% CO2 incubator using an MEM culture medium (containing 10% FBS), and the individual cells were dissociated with a 2.5% trypsin solution. The melanoma cells were injected into the caudal vein of BDF1 mice (SPF). The number of cells injected was 2×10^5/0.2 ml/mouse. As test compounds for cancer metastasis inhibitory action, 15-hydroxypentadecanoic acid, 15-pentadecanolide, and 5-cyclohexadecen-1-one were used, and as a positive control compound, Mitomycin Kyowa S (manufactured by Kyowa Hakko Kokyo Co., Ltd.) was used. The test compounds and the positive control compound were dissolved or suspended in olive oil and administered as shown in Table 5 below. (In the case of intravenous administration, micellisation was performed using Tween before administration.) The dosage of the test compounds was 100 mg/kg each time in the case of peritoneal administration, and 10 mg/kg each time in the case of intravenous administration. The dosage of Mitomycin Kyowa S as the positive control compound was 0.5 mg/kg each time by peritoneal administration.
From day 10 post-implant onward, metastatic cancer cells of mice in the satellite group were observed, and on day 14 when the size of the cells was believed to be suitable for evaluation, the mice were sacrificed and the lungs were enucleated. The number of metastatic cancer cells was then counted.

[3] = test system: human fibrosarcoma cell line HT1080; experiment: Cancer cell mobility test (cancer invasion inhibitory action), Boyden double chamber with Matrigel/fibronectin; format: cell-based; settings: for Tumor Invasion (cell/mm^2) 5 μM / Tumor Invasion (cell/mm^2) 10 μM: administered to cells 18 hours in advance, HT1080, counted after 3.5 hours; for Cell Invasion Rate at 10 μM (%): relative to no addition = 100%, lower value = higher inhibition
Experimental: as §1, with “of human fibrosarcoma” for “of melanoma”, “line HT1080” for “line B16BL6, a type of skin cancer,”, “and 10” for “and 20”

[4] = test system: Rat spontaneous mammary cancer cells (SST-2); experiment: Cancer metastasis inhibitory action test (in vivo), lung metastasis of subcutaneously implanted SST-2; settings: day 7 pre-implant to day 34 post-implant; for Average number of metastatic colonies formed: lung, after 35 days; for Lung weight / Subcutaneous tumor weight: sacrifice after 35 days
Experimental: Rat spontaneous mammary cancer cells (SST-2) (1×10^5 cells) were subcutaneously implanted in the backs of Wister male rats (5 rats for each group). After 35 days, the rats were sacrificed, and the lung weight and the number of colonies formed were measured to observe the extent of lung metastasis of the SST-2. With respect to the groups to which 5-cyclohexadecen-1-one as the compound of the present invention was administered, 20 mg/rat and 5 mg/rat were orally administered and subcutaneously injected, from day 7 pre-implant to day 34 post-implant, and the subcutaneous tumor weight, the lung weight, and the number of metastatic colonies formed were compared with those of the control group, to which no treatment was provided.

[5] = test system: adenocarcinoma 755 cell line; experiment: Test for action of killing cancer (in vivo), subcutaneous tumor weight; set-up: species or system mice; settings: subcutaneous injection daily at 10 mg/kg for 5 days; tumors excised day 10 post-implant; control group 9.0 g
Experimental: In the backs of 6-week-old mice (first filial hybrid of C57BL/6 and DBA/2), 10^6 cells of adenocarcinoma 755 cell line were subcutaneously implanted. After 24 hours, a solution in which each sample was suspended, at a concentration of 50 mg/ml, in a physiological saline solution of 0.25% surfactant Nikkol HCO-60 (manufactured by Nikko Chemicals Co., Ltd.; polyoxyethylene (40) hydrogenated castor oil), was subcutaneously injected into a group of 8 mice, daily at 10 mg/kg for 5 days. On day 10 post-implant of adenocarcinoma 755 cells, the mice were sacrificed and tumors were excised. The average weight (g) of the tumors was obtained. As a result, the average weight of the control group was 9.0 g, while the average weight of the group to which 5-cyclohexadecen-1-one had been administered was as small as 1.9 g. The significant action of killing cancer was thus confirmed.

[6] = test system: melanoma cell line B16BL6; settings: comparison derivatives of L-ascorbic acid (JP-A-8-291075); cited from earlier work
[7] = B16-BL6, 20 μM, relative to no addition = 100%, lower value = higher inhibition, read-out: Cell Invasion Rate at 20 μM (%)
[8] = Peritoneal administration, 100 mg/kg each time
[9] = Subcutaneous injection 5 mg/rat
[10] = Subcutaneous injection 20 mg/rat
[11] = B16-BL6, read-out: Cell Invasion Rate at 20 μM (%)

O=C1CCCCCCCCCCCCCCO1 [15-pentadecanolide]
Tumor Invasion (cell/mm^2) 5 μM [1]: 386 ± 26 cell/mm^2 | Tumor Invasion (cell/mm^2) 20 μM ([1]; 20 μM): 324 ± 27 cell/mm^2 | activity at 20 µM [1, 7]: 64.4% | Number of metastatic cells ([2]; Intravenous administration, 10 mg/kg each time, 3 times on day of implantation): 52.2 | Number of metastatic cells [2, 8]: 134.3

O=C1CCCCCCCCCCCCCCCO1 [16-hexadecanolide]
Tumor Invasion (cell/mm^2) 5 μM [1]: 370 ± 62 cell/mm^2 | Tumor Invasion (cell/mm^2) 20 μM ([1]; 20 μM): 293 ± 43 cell/mm^2 | activity at 20 µM [1, 7]: 58.3%

O=C(O)CCCCCCCCCCCC(=O)CCCO [16-hydroxy-13-oxohexadecanoic acid]
Tumor Invasion (cell/mm^2) 5 μM [3]: 214 cell/mm^2 | Tumor Invasion (cell/mm^2) 10 μM [3]: 121 cell/mm^2 | Cell Invasion Rate at 10 μM (%) [3]: 31.8%

O=C(O)CCCCCCCCCCC(=O)CCCO [15-hydroxy-12-oxopentadecanoic acid]
Tumor Invasion (cell/mm^2) 5 μM [1]: 268 ± 34 cell/mm^2 | Tumor Invasion (cell/mm^2) 20 μM ([1]; 20 μM): 119 ± 25 cell/mm^2 | activity at 20 µM [1, 7]: 23.7%

O=C1CCCC=CCCCCCCCCCC1 [5-cyclohexadecen-1-one]
Average number of metastatic colonies formed ([4]; Oral administration 5 mg/rat): 28.4 | Lung weight ([4]; Oral administration 5 mg/rat): 1.5 g | Subcutaneous tumor weight ([4]; Oral administration 5 mg/rat): 46.4 g | Average number of metastatic colonies formed ([4]; Oral administration 20 mg/rat): 17.5 | Lung weight ([4]; Oral administration 20 mg/rat): 1.4 g | Subcutaneous tumor weight ([4]; Oral administration 20 mg/rat): 44.7 g | Average number of metastatic colonies formed [4, 9]: 15.7 | Lung weight [4, 9]: 1.3 g | Subcutaneous tumor weight [4, 9]: 43.5 g | Average number of metastatic colonies formed [4, 10]: 10.9 | Lung weight [4, 10]: 1.1 g | Subcutaneous tumor weight [4, 10]: 42.0 g | average weight of the tumors [5]: 1.9 g | Tumor Invasion (cell/mm^2) 5 μM [1]: 285 ± 36 cell/mm^2 | Tumor Invasion (cell/mm^2) 20 μM ([1]; 20 μM): 143 ± 14 cell/mm^2 | activity at 20 µM [1, 7]: 31.6% | Number of metastatic cells [2, 8]: 35.6

O=C1CCCCCCCCCCCCCC1 [Cyclopentadecanone]
Tumor Invasion (cell/mm^2) 5 μM [1]: 459 ± 39 cell/mm^2 | Tumor Invasion (cell/mm^2) 20 μM ([1]; 20 μM): 491 ± 35 cell/mm^2 | activity at 20 µM [1, 11]: 109%

O=C(O)CCCCCCCCCCCO [12-hydroxydodecanoic acid]
Tumor Invasion (cell/mm^2) 5 μM [1]: 324 ± 23 cell/mm^2 | Tumor Invasion (cell/mm^2) 20 μM ([1]; 20 μM): 246 ± 30 cell/mm^2 | activity at 20 µM [1, 11]: 48.9%

CO[C@@]12[C@H](COC(N)=O)C3=C(C(=O)C(C)=C(N)C3=O)N1C[C@@H]1N[C@@H]12 [Mitomycin, reference compound]
Number of metastatic cells ([2]; Peritoneal administration, 0.5 mg/kg each time, 3 times on day of implantation): 21.2

11(12)-pentadecen-15-olide
Tumor Invasion (cell/mm^2) 5 μM [1]: 234 ± 17 cell/mm^2 | Tumor Invasion (cell/mm^2) 20 μM ([1]; 20 μM): 146 ± 31 cell/mm^2 | Cell Invasion Rate at 20 μM (%) ([1]; 20 μM, relative to no addition = 100%, lower value = higher inhibition): 29.0%

O=C(O)CCCCCCCCCCCCCCCO [16-hydroxyhexadecanoic acid]
Tumor Invasion (cell/mm^2) 5 μM [1]: 301 ± 47 cell/mm^2 | Tumor Invasion (cell/mm^2) 20 μM ([1]; 20 μM): 199 ± 32 cell/mm^2 | activity at 20 µM [1, 11]: 39.6%

CCOC(=O)CCCCCCCCCC=CCCCO [ethyl-15-hydroxy-11(12)-pentadecenoate]
Tumor Invasion (cell/mm^2) 5 μM [3]: 129 cell/mm^2 | Tumor Invasion (cell/mm^2) 10 μM [3]: 106 cell/mm^2 | Cell Invasion Rate at 10 μM (%) [3]: 28.6%

CNC(=O)[C@@H](NC(=O)[C@H](CC(C)C)[C@H](O)C(=O)NO)C(C)(C)C [Marimastat, reference compound]
Tumor Invasion (cell/mm^2) 5 μM [3]: 269 cell/mm^2 | Tumor Invasion (cell/mm^2) 10 μM [3]: 172 cell/mm^2 | Cell Invasion Rate at 10 μM (%) [3]: 42.6%

O=C(O)CCCCCCCCCCCCCCO [15-hydroxypentadecanoic acid]
Tumor Invasion (cell/mm^2) 5 μM [1]: 289 ± 45 cell/mm^2 | Tumor Invasion (cell/mm^2) 20 μM ([1]; 20 μM): 135 ± 11 cell/mm^2 | activity at 20 µM [1, 7]: 26.8% | Number of metastatic cells [2, 8]: 78.0

O=C1CCCCCCCC=CCCCCCCO1 [9-hexadecen-16-olide]
Tumor Invasion (cell/mm^2) 5 μM [1]: 257 ± 42 cell/mm^2 | Tumor Invasion (cell/mm^2) 20 μM ([1]; 20 μM): 113 ± 19 cell/mm^2 | activity at 20 µM [1, 7]: 22.5%

CCCCCCCCCCCCCCCC(=O)OC[C@H](O)[C@H]1OC(=O)C(O)=C1O [L-ascorbyl 6-O-palmitate]
concentration at which a 25% cancer cell invasion inhibition was obtained [6]: approximately 110 μM

O=C1CCCCCCCCCCCC(=O)OCCO1 [Ethylene tridecanedioate]
Tumor Invasion (cell/mm^2) 5 μM [3]: 226 cell/mm^2 | Tumor Invasion (cell/mm^2) 10 μM [3]: 84 cell/mm^2 | Cell Invasion Rate at 10 μM (%) [3]: 16.0%

O=C1CCCCCCCCCCCO1 [12-dodecanolide]
Tumor Invasion (cell/mm^2) 5 μM [1]: 405 ± 38 cell/mm^2 | Tumor Invasion (cell/mm^2) 20 μM ([1]; 20 μM): 461 ± 67 cell/mm^2 | activity at 20 µM [1, 7]: 91.7%

12-oxahexadecen-16-olide
Tumor Invasion (cell/mm^2) 5 μM [3]: 218 cell/mm^2 | Tumor Invasion (cell/mm^2) 10 μM [3]: 109 cell/mm^2 | Cell Invasion Rate at 10 μM (%) [3]: 20.8%

O=C1O[C@H]([C@@H](O)CO)C(O)=C1OP(=O)(O)O [L-ascorbyl 2-phosphate]
concentration at which a 25% cancer cell invasion inhibition was obtained [6]: approximately 280 μM

CCCCCCCCCCCC1CCCC(=O)O1 (centres unmarked) [5-hexadecanolide]
Tumor Invasion (cell/mm^2) 5 μM [3]: 144 cell/mm^2 | Tumor Invasion (cell/mm^2) 10 μM [3]: 111 cell/mm^2 | Cell Invasion Rate at 10 μM (%) [3]: 27.5%
